Experimental data: patent US11884660B2, “Substituted oxopyridine derivative” (Bayer Pharma Aktiengesellschaft, priority 2018, dated 2024)
Where a name gives a salt, the structure may show the parent alone.

Experiments:
[1] = target: human factor XIa (Homo sapiens (Human), UniProt P03951); assay: Measurement of FXIa inhibition (fluorogenic substrate Boc-Glu(OBzl)-Ala-Arg-AMC); format: biochemical; settings: human factor XIa 0.45 nM; 15 min preincubation; 30 min at 22° C.; some as mean values from multiple determinations
Sequence of human factor XIa (P03951 388-625): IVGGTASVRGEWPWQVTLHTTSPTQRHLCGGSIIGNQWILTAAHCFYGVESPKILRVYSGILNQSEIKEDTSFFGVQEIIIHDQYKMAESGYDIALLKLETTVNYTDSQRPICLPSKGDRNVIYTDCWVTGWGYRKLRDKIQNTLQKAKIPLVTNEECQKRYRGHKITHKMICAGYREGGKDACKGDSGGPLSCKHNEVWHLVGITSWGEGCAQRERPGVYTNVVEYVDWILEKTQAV
Sequence of human factor XIa (P03951 19-387 partner): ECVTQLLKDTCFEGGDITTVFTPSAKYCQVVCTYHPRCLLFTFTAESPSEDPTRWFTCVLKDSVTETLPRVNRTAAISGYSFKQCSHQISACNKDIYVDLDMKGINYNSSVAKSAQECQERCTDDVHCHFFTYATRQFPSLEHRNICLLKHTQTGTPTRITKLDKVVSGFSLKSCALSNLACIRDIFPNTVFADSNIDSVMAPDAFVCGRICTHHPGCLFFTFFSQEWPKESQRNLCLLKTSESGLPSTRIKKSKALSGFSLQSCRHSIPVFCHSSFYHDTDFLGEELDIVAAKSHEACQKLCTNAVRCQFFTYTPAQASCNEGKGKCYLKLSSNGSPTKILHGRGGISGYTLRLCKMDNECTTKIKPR
Procedure: a.2) Measurement of FXIa Inhibition
(§1) The factor XIa inhibition of the substances according to the invention is determined using a biochemical test system which utilizes the reaction of a peptidic factor XIa substrate to determine the enzymatic activity of human factor XIa. Here, factor XIa cleaves from the peptic factor XIa substrate the C-terminal aminomethylcoumarin (AMC), the fluorescence of which is measured. The determinations are carried out in microtitre plates.
Test substances are dissolved in dimethyl sulphoxide and serially diluted in dimethyl sulphoxide (3000 μM to 0.0078 μM; resulting final concentrations in the test: 50 μM to 0.00013 μM). In each case 1 μl of the diluted substance solutions is placed into the wells of white microtitre plates from Greiner (384 wells). 20 μl of assay buffer (50 mM of Tris/HCl pH 7.4; 100 mM of sodium chloride; 5 mM of calcium chloride; 0.1% of bovine serum albumin) and 20 μl of factor XIa from Kordia (0.45 nM in assay buffer) are then added successively. After 15 min of incubation, the enzyme reaction is started by addition of 20 μl of the factor XIa substrate Boc-Glu(OBzl)-Ala-Arg-AMC dissolved in assay buffer (10 μM in assay buffer) from Bachem, the mixture is incubated at room temperature (22° C.) for 30 min and fluorescence is then measured (excitation: 360 nm, emission: 460 nm). The measured emissions of the test batches with test substance are compared to those of control batches without test substance (only dimethyl sulphoxide instead of test substance in dimethyl sulphoxide), and IC50 values are calculated from the concentration/activity relationships. Activity data from this test are listed in Table B below (some as mean values from multiple independent individual determinations): […]

[2] = target: human plasma kallikrein (Homo sapiens (Human), UniProt P03952); assay: Determination of the plasma kallikrein activity (fluorogenic substrate H-Pro-Phe-Arg-AMC); format: biochemical; settings: human plasma kallikrein 0.6 nM; 15 min preincubation; 30 min at 22° C.; some as mean values from multiple determinations
Sequence of human plasma kallikrein (P03952 391-638): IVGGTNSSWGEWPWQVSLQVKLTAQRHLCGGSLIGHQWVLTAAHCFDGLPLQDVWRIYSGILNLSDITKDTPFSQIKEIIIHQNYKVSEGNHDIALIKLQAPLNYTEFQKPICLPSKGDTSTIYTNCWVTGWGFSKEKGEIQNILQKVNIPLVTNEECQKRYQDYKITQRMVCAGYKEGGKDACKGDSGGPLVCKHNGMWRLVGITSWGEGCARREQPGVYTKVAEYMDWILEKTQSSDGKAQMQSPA
Sequence of human plasma kallikrein (P03952 20-390 partner): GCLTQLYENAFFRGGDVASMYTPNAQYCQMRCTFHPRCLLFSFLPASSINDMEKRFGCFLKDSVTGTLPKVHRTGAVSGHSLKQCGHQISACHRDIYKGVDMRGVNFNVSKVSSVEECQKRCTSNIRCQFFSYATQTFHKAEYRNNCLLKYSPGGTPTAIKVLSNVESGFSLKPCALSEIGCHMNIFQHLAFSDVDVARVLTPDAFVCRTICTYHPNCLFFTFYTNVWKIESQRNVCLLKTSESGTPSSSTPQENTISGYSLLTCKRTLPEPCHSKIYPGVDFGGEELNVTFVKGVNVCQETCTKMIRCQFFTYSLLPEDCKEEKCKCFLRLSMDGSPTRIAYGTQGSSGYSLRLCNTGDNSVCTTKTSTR
Procedure: a.1) Determination of the Plasma Kallikrein Activity
as §1, with “To determine the plasma kallikrein” for “The factor XIa”, “invention,” for “invention is determined using”, “system is used” for “system”, “plasma kallikrein” for “factor XIa”, “plasma kallikrein.” for “factor XIa.”
Test substances are dissolved in dimethyl sulphoxide and serially diluted in dimethyl sulphoxide (3000 μM to 0.0078 μM; resulting final concentrations in the test: 50 μM to 0.00013 μM). In each case 1 μl of the diluted substance solutions is placed into the wells of white microtitre plates from Greiner (384 wells). 20 μl of assay buffer (50 mM Tris/HCl pH 7.4; 100 mM sodium chloride solution; 5 mM of calcium chloride solution; 0.1% of bovine serum albumin) and 20 μl of plasma kallikrein from Kordia (0.6 nM in assay buffer) are then added successively. After 15 min of incubation, the enzyme reaction is started by addition of 20 μl of the substrate H-Pro-Phe-Arg-AMC dissolved in assay buffer (10 μM in assay buffer) from Bachem, the mixture is incubated at room temperature (22° C.) for 30 min and fluorescence is then measured (excitation: 360 nm, emission: 460 nm). The measured emissions of the test batches with test substance are compared to those of control batches without test substance (only dimethyl sulphoxide instead of test substance in dimethyl sulphoxide), and IC50 values are calculated from the concentration/activity relationships. Activity data from this test are listed in Table A below (some as mean values from multiple independent individual determinations): […]

Structure (SMILES) | IC50 [1] [nM] | IC50 [2] [nM]
COc1cn(C(C(=O)Nc2ccn3ncc(C(N)=O)c3c2)C(C)CCCN)c(=O)cc1-c1cc(Cl)ccc1C#N (racemic) [Example 1, 5-({6-Amino-2-[4-(5-chloro-2-cyanophenyl)-5-methoxy-2-oxopyridin-1(2H)-yl]-3-methyl-hexanoyl}amino)pyrazolo[1,5-a]pyridine-3-carboxamidetrifluoroacetate] | > 10000 | 5.6
COc1cn([C@H](C(=O)Nc2ccn3ncc(C(N)=O)c3c2)C(C)CCCN)c(=O)cc1-c1cc(Cl)ccc1C#N (single isomer, unassigned) [Example 2, trifluoroacetate] | > 2000 | 1.8
COc1cn([C@H](C(=O)Nc2ccn3ncc(C(N)=O)c3c2)C(C)CCCN)c(=O)cc1-c1cc(Cl)ccc1C#N (single isomer, unassigned) [Example 3, trifluoroacetate] | > 2000 | 2.1
